# Legend:
# Format in all cases: biochemical
# Conditions in all cases: test concentration not given; average of triplicate
# [1] = biological target: T1, Recombinant human HDAC1 (Homo sapiens, UniProt Q13547); experiment: HDAC inhibitory assay, HDAC1 (Boc-Lys(Ac)-AMC substrate)
# T1 construct: purchased BPS Biosciences
# Experimental: (§1) The compounds of Examples 1-12 and 14-16 were evaluated for their ability to act as inhibitors of human HDAC. The compound of Example 13 was not tested. Recombinant human HDAC1, HDAC2, HDAC3/NcoR2, HDAC5, HDAC6, HDAC8, HDAC9, HDAC10 and HDAC11 were purchased from BPS Biosciences. Recombinant human HDAC4 and HDAC7 were purchased from Millipore. The substrate Boc-Lys(Ac)-AMC and Boc-Lys(Tfa)-AMC were purchased from Bachem. The substrate Ac-RHK(Ac)K(Ac)-AMC was purchased from Enzo Life Sciences. Due to the different specific activities of each isoform, different amount of enzyme was used in each isoform screening assay. In these assays, trichostatin A (TSA), suberanilohydroxamic acid and diphenylacetohydroxamic acid (DPAHA) were employed as positive controls. All determinations were carried out in triplicate, and reported values were the average of these determinations, which in no case varied by more than 5%.
# (§2) Then 25 μl of the Boc-Lys(Ac)-AMC substrate (50 μM final concentration) was added and incubated at 37° C. for 30-60 min, and followed by adding 50 μl of developer (1 mg/ml trypsin and 1 μM TSA). The last step was reading the samples in a SpectraMax M5 plate reader (Molecular Devices) at an excitation wavelength of 360 nm and an emission wavelength of 460 nm.
# [2] = biological target: T2, Recombinant human HDAC2 (Homo sapiens, UniProt Q92769); experiment: HDAC inhibitory assay, HDAC2 (Boc-Lys(Ac)-AMC substrate)
# T2 construct: purchased BPS Biosciences
# Experimental: as §1, §2
# [3] = biological target: T3, Recombinant human HDAC4 (Homo sapiens, UniProt P56524); experiment: HDAC inhibitory assay, HDAC4 (Boc-Lys(Tfa)-AMC substrate)
# T3 construct: purchased Millipore
# Experimental: as §1
# (§3) For evaluating the inhibition of class IIa HDACs (HDAC4, HDAC5, HDAC7 and HDAC9) and class IV HDAC (HDAC11), 10 μl of test samples were first incubated with 1 ng HDAC4 (specific activity=15400 pmol/min/μg), 5 ng HDAC5 (specific activity=2521 pmol/min/μg), 1 ng HDAC7 (specific activity=26340 pmol/min/μg), 5 ng HDAC9 (specific activity=3000 pmol/min/μg), and 500 ng HDAC11 (specific activity=1.8 pmol/min/μg) respectively. Then 25 μl of the Boc-Lys(Tfa)-AMC substrate (50 μM final concentration) was added and incubated at 37° C. for 30-60 min, and followed by adding 50 μl of developer. The last step was to read the samples in a SpectraMax M5 plate reader (Molecular Devices) at an excitation wavelength of 360 nm and an emission wavelength of 460 nm.
# [4] = biological target: T4, Recombinant human HDAC8 (Homo sapiens, UniProt Q9BY41); experiment: HDAC inhibitory assay, HDAC8 (Ac-RHK(Ac)K(Ac)-AMC substrate)
# T4 construct: purchased BPS Biosciences
# T4 sequence (Q9BY41 1-377): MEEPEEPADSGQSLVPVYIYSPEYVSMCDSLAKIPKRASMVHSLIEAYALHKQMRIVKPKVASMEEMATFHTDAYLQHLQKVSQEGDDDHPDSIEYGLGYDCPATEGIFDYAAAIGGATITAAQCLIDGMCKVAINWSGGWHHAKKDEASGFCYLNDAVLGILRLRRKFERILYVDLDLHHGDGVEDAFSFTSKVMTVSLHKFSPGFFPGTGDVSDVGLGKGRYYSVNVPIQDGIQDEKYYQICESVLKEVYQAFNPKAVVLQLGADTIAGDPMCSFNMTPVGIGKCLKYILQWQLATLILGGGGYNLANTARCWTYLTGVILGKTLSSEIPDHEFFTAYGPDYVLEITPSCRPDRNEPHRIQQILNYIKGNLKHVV
# Experimental: as §1
# For evaluating the inhibition of HDAC8, 10 μl of test samples were first incubated with 25 ng HDAC8 (specific activity 298 pmol/min/μg). Then 25 μl of the fluorogenic peptide from p53 residues 379-382 (Ac-RHK(Ac)K(Ac)-AMC, 50 μM final concentration) was added and incubated at 37° C. for 30-60 min, and followed by adding 50 μl of developer (1 mg/ml trypsin and 1 uM TSA). The last step was to read the samples in a SpectraMax M5 plate reader (Molecular Devices) at an excitation wavelength of 360 nm and an emission wavelength of 460 nm.
# [5] = biological target: T5, Recombinant human HDAC9 (Homo sapiens, UniProt Q9UKV0); experiment: HDAC inhibitory assay, HDAC9 (Boc-Lys(Tfa)-AMC substrate)
# T5 construct: purchased BPS Biosciences
# Experimental: as §1, §3
# [6] = biological target: T6, Recombinant human HDAC11 (Homo sapiens, UniProt Q96DB2); experiment: HDAC inhibitory assay, HDAC11 (Boc-Lys(Tfa)-AMC substrate)
# T6 construct: purchased BPS Biosciences
# T6 sequence (Q96DB2 1-347): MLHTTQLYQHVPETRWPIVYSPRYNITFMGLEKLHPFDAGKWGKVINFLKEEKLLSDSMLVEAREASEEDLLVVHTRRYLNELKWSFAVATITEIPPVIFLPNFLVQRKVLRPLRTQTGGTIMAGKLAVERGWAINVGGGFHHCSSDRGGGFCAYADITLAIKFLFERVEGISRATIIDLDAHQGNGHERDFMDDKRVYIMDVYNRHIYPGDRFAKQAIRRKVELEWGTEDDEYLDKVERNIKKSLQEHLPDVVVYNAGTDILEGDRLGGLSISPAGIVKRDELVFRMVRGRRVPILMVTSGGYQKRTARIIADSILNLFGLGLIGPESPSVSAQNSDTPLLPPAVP
# Experimental: as §1, §3
# T5 sequence (Q9UKV0 whole entry): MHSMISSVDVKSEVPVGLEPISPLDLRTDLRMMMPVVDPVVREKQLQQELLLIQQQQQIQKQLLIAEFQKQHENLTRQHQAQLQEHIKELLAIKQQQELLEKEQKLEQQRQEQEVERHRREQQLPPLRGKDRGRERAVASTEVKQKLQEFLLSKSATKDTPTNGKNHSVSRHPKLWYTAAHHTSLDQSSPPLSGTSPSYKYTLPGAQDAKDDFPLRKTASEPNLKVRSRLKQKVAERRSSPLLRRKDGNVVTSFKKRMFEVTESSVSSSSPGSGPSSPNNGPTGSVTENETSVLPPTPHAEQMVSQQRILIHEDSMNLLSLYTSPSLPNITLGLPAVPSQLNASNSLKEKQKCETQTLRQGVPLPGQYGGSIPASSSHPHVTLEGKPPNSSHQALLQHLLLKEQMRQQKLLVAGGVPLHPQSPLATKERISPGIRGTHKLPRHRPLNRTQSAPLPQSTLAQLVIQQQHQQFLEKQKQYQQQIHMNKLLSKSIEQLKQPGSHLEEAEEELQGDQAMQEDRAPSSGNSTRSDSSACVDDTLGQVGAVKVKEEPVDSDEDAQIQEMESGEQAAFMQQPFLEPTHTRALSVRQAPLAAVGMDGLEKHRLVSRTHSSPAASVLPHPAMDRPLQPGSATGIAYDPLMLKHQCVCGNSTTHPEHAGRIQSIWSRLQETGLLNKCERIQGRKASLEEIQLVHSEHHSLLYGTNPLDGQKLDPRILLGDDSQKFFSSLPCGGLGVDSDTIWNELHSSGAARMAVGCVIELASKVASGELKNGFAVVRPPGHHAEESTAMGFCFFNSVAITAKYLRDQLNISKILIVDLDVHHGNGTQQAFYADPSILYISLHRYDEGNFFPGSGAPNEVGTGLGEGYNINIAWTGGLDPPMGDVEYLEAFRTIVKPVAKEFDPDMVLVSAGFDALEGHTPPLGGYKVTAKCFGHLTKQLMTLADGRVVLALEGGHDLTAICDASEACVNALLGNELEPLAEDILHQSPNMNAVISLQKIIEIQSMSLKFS
# T2 sequence (Q92769 whole entry): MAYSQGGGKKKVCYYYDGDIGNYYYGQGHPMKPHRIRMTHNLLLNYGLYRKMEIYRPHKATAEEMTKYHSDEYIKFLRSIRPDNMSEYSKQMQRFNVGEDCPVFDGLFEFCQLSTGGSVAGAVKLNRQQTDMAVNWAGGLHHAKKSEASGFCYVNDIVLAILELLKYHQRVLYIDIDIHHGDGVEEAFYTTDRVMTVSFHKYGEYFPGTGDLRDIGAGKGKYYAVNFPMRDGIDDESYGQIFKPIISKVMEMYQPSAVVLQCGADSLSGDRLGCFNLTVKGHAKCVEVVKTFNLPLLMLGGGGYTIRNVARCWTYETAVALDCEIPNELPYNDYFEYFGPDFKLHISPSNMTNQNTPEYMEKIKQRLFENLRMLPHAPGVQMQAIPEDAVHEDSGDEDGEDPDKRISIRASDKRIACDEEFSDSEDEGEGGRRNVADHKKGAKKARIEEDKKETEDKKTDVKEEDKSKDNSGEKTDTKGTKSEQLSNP
# T3 sequence (P56524 whole entry): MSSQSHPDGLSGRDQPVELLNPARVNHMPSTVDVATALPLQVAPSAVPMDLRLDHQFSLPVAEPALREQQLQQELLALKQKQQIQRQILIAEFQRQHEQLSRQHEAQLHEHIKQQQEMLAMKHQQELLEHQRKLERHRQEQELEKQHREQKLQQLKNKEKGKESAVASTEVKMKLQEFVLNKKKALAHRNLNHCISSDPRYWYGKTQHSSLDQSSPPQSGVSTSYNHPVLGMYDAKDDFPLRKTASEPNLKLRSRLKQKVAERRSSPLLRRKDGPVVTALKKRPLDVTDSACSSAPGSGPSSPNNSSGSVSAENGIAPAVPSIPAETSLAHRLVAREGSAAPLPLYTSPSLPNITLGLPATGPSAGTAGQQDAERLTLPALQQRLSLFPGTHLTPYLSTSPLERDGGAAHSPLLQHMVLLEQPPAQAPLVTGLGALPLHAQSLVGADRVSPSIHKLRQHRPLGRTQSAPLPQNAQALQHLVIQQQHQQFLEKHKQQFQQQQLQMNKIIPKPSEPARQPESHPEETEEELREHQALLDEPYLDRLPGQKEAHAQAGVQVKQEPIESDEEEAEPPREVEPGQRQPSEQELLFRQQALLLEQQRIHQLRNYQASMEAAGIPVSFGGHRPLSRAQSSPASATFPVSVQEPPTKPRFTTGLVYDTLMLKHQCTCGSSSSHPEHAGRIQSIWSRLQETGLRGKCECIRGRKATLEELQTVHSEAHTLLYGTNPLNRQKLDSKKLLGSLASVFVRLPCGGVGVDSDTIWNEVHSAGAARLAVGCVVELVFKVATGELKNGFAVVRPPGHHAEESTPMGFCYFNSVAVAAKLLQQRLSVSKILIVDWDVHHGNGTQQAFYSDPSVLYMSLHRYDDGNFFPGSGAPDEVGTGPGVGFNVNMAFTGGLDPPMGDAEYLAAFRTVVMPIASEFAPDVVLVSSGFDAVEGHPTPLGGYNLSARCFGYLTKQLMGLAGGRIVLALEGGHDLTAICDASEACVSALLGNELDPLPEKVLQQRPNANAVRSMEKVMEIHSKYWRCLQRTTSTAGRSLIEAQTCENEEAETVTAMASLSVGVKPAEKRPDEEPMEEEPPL
# T1 sequence (Q13547 whole entry): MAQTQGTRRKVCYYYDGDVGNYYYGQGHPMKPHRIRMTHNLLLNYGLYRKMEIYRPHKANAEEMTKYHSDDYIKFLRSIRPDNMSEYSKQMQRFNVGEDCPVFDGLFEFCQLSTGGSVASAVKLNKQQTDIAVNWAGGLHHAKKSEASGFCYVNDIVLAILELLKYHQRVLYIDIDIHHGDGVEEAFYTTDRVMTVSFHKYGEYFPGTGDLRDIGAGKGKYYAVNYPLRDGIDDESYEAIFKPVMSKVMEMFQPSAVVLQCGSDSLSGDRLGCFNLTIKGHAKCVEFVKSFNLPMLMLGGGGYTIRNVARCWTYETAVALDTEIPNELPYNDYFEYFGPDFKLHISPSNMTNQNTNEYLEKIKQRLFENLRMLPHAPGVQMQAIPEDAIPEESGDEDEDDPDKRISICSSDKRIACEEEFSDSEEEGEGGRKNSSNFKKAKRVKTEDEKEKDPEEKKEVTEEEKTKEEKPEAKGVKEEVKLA
Compound,HDAC 1 inhibitory activity [1] [%],HDAC 2 inhibitory activity [2] [%],HDAC 4 inhibitory activity [3] [%],HDAC 8 inhibitory activity [4] [%],HDAC 9 inhibitory activity [5] [%],HDAC 11 inhibitory activity [6] [%]
"O=C(NCc1cccc2ccccc12)c1coc(-c2ccccc2O)n1 [Example 7, 2-(2-Hydroxyphenyl)-N-(naphthalen-1-ylmethyl)oxazole-4-carboxamide]",47.8,45.2,21.3,10.6,15.5,49.9
"O=C(NCC(c1ccccc1)c1ccccc1)c1coc(-c2ccccc2O)n1 [Example 3, N-(2,2-Diphenylethyl)-2-(2-hydroxyphenyl)oxazole-4-carboxamide]",43.9,34.8,8.5,16.7,21.6,39.5

# Reference: patent US10000474B2, “Histone deacetylase inhibitors and uses thereof” (MUSC FOUNDATION FOR RESEARCH DEVELOPMENT, priority 2014, dated 2018)
